The target of one data set is T1, Human M2 (Homo sapiens, UniProt P08172).
T1 sequence (P08172 1-466): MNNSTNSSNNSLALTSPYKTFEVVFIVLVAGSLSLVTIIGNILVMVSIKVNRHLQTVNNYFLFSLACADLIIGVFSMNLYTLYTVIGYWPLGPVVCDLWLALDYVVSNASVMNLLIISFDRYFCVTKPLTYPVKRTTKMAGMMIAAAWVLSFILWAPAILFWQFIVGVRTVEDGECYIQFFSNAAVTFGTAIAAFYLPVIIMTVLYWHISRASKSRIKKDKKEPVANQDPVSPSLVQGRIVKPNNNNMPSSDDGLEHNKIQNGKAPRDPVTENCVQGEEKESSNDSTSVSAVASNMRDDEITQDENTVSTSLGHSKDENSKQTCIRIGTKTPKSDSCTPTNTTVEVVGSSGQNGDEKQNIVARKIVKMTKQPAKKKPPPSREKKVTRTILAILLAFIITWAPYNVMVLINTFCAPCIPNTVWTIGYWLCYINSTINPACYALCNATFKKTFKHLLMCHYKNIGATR
In words: analogous cell-based functional assay using human M2.

In data set [1] the test system is amphetamine-induced hyperlocomotion. In words: amphetamine-induced hyperlocomotion in rats. It counts as in vivo, male Sprague-Dawley rats. Particulars: for percent reversal of amphetamine-induced hyperlocomotion: rat, 1 mg/kg amphetamine s.c. As to the method:
d-Amphetamine hemisulfate was obtained from Sigma (St. Louis, Mo.). Salt-correction was used to determine the correct amount of the d-amphetamine hemisulfate form in milligrams to add to sterile water in order to yield a […] solution, which would be dosed at 1 mL/kg body weight of each animal. […] The solutions were formulated so that animals were injected with a volume equal to 10 mL/kg body weight for all compounds. The appropriate amount according to the dosage was mixed in 10% Tween 80 (Sigma) in sterile water. The mixtures were then vortexed and stored in a 39° C. sonication bath for 1 hour, until in a microsuspension (except for the highest dose, which was a suspension).
Male Sprague-Dawley rats weighing 239-300 grams and averaging 265 g (Harlan, Inc., Indianapolis, Ind.) were used. They were housed in the animal care facility certified by the American Association for the Accreditation of Laboratory Animal Care (AALAC) under a 12-hour light/dark cycle (lights on: 6 a.m.; lights off: 6 p.m.) and had free access to food and water. The animals used in this experiment were food-deprived the evening before experimentation for oral dosing of compound/vehicle. The experimental protocols performed during the light cycle were approved by the Institutional Animals Care and Use Committee of Vanderbilt University and conformed to the guidelines established by the National Research Council Guide for the Care and Use of Laboratory Animals.
Male Harlan Sprague Dawley rats were habituated in Smart Open Field locomotor activity test chambers (Hamilton-Kinder, San Diego, Calif.) with 16×16 photo beams to automatically record locomotor activity. […] They were monitored for an additional 30 minutes and then injected subcutaneously with vehicle or 1 mg/kg amphetamine. Animals were then monitored for an additional 60 minutes, for a total of 120 minutes. Data were expressed as changes in ambulation defined as total number of beam breaks per 5 minute interval. Terminal brain and plasma samples were collected at the end of the study for pharmacokinetic analysis.
Behavioral data were analyzed using a two-way ANOVA with main effects of treatment and time. Post hoc analysis was performed using a Dunnett's t-test with all treatment groups compared to the VAMP group using GraphPad Prism V.5.04 (GraphPad Software, San Diego, Calif.). Data were graphed using GraphPad Prism V.5.04 (GraphPad Software, San Diego, Calif.). A probability of p<0.05 was taken as the level of statistical significance. In addition, the total number of beam breaks from the amphetamine administration (65 min) to the end of the study (120 min) was calculated and graphed. Percent Reversal was calculated as follows using Microsoft Excel: In each animal, total ambulation from t=65 to t=120 was summed. The mean of each sum was calculated in the VAMP group. Then, for each animal, Percent Reversal was calculated with the following formula: Percent Reversal=100−{[(total ambulation in each animal from t=65 to t=120)/(mean of each sum from t=65 to t=120 in VAMP group)]*100}. The mean Percent Reversal, as well as the standard error, was calculated for each dose group using GraphPad Prism V5.04.

Data set [2] can be described thus: intrinsic clearance, human. It counts as in vitro ADME. As to the method: (§1) Compound 76 was in several in vitro assays to investigate both metabolism and pharmacokinetics. These assays were performed according to known methods as generally described in the following references: Conde-Ceide et al. ACS Med. Chem. Lett. 2015, 6, 716-720; Morris et al. J. Med. Chem. 2014, 57, 10192-10197; and Bubser et al. ACS Chem. Neurosci. 2014, 5, 920-942.

In another data set the target is P450 2D6 (Homo sapiens, UniProt P10635). In words: P450 2D6 inhibition. It counts as in vitro ADME. The procedure: as §1
Chain of P450 2D6 (P10635 whole entry): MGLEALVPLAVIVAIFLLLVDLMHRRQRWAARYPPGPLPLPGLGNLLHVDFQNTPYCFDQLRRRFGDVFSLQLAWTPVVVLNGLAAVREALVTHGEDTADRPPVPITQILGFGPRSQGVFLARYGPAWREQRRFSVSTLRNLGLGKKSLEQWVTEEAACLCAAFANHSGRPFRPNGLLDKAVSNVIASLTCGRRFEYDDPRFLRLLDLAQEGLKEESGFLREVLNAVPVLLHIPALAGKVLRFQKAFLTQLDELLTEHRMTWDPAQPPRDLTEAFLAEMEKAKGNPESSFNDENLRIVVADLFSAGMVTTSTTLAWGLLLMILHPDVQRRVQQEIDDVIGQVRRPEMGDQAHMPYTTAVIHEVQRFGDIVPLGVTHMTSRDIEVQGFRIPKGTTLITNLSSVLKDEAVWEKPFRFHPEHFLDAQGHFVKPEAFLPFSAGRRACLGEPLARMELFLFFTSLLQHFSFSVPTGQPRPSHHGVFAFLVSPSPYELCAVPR
Another data set is described as follows: in vivo. As to conditions: cynomolgus monkey.
Another data set in a line: in vivo DMPK, rat. As to conditions: 3 mg/kg.
Data set [3] concerns four strains of Salmonella. As to the kind of experiment: Eurofins Ames Test. As to conditions: 5-100 μM.
The next data set concerns the target T2, rat mAChR M4 (Rattus norvegicus, UniProt P08485).
T2 sequence (P08485 1-478): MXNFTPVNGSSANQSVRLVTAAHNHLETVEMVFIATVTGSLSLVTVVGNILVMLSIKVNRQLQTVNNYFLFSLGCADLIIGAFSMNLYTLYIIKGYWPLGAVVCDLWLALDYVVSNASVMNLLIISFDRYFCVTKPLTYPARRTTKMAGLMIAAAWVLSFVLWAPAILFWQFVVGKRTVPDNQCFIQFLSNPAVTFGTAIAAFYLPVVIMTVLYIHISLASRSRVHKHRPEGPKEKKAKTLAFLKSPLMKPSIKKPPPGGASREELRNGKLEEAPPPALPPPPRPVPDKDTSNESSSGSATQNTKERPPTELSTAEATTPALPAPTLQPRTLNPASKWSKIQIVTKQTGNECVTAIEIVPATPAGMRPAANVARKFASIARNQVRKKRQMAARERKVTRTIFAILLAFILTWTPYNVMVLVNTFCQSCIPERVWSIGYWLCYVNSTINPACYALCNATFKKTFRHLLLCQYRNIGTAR
In words: mAChR M4 cell-based functional assay (calcium flux), rat M4. Further details: Emax: dose or concentration left out as unconfirmed.

Data on one compound can be found in patent publication US10239887B2, “Positive allosteric modulators of the muscarinic acetylcholine receptor M4” (Vanderbilt University, priority 2016, dated 2019).

As usually defined, the Emax is the greatest response seen or fitted, relative to the assay's reference. Broadly, the EC50 is the concentration giving half of the maximal effect. Usually CLint scaled stands for the capacity of the preparation to metabolise the compound, expressed as a volume cleared per time. What is called IC50 is the concentration needed to halve the response being measured. Usually Vd stands for the apparent volume that relates the amount in the body to the concentration in plasma or blood. The clearance is the rate of elimination divided by the concentration. As a reminder, the half-life is the time needed for the level to fall by half in the phase considered. `Cc1nnc2sc3c(NCc4ccc(C(C)(C)O)cc4)ncnc3c2c1C` [Compound 76, 2-[4-[[(3,4-Dimethylpyrimido[4′,5′:4,5]thieno[2,3-c]pyridazin-8-yl)amino]methyl]phenyl]propan-2-ol]: the values for the Emax at Human M2 (Human M2) and on rat mAChR M4 were 48% and 77%, respectively. Moreover, the response at Human M2 (analogous assay using human M2) was half-maximal at 2800 nM (EC50). In addition, the “percent reversal of amphetamine-induced hyperlocomotion” value in data set [1] (0.1 mg/kg p.o.) is listed as 8.1%; in data set [1] (0.3 mg/kg p.o.), 32.8%; in data set [1] (1 mg/kg p.o.), 50.7%; in data set [1] (3 mg/kg p.o.), 44.3%; in data set [1] (10 mg/kg p.o.) it was 62.8%; in data set [1] ([…] p.o.), 25.6%. The “reversal of amphetamine-induced hyperlocomotion (in words)” value in data set [1] (systemic administration, similar extent as VU0467154 at 10 mg/kg p.o.) is “significant and sustained reversal”. In data set [2], this compound registered a CLint scaled of 15 mL/min/kg. Also, the 50% inhibitory concentration (IC50) against P450 2D6 is greater than 30000 nM. In “in vivo” (brain), this compound registered a Kp of 0.37. In “in vivo” (brain), this compound came in with a Kp uu of 0.62. Further, in “in vivo” (plasma), the Vd worked out at 0.9 L/kg. Besides, in “in vivo” (plasma), the clearance was found to be 5.3 mL/min/kg. Moreover, in the data set “in vivo” (plasma), the half-life is 4.5 h. Besides, the “Rat oral F” value in “in vivo DMPK, rat” was greater than 100%. Further, the Ames test result in data set [3] is recorded as “clean”.
